ChEMBL document CHEMBL1201862, “PubChem BioAssay data set” (2004)
Where “and” joins values, the source holds several entries; their conditions need not be identical. Identical values can stand only once. Calls of active or inactive are those of the source.

How the values were obtained:
[1] = tested on: Vero; test: antiviral protection of cells from WNV – synthesized analogs, SAR follow-up (AID 2238); type: functional, cell-based; conditions: Chlorocebus sabaeus
[2] = tested on: Vero; test: host cell viability loss, Vero E6 – synthesized analogs, cytotoxicity control for West Nile virus antiviral project, SAR follow-up (AID 2244); type: functional; conditions: Chlorocebus sabaeus
[3] = tested on: Vero; test: inhibition of WNV-induced cytopathic effect – cell-based, CPE readout (AID 1621); type: functional; conditions: Chlorocebus sabaeus
[4] = tested on: Vero; test: Vero cell viability after compound exposure – synthesized analogs, set II, cytotoxicity control for West Nile virus antiviral project, SAR follow-up (AID 2402); type: functional, Chlorocebus sabaeus
[5] = tested on: Vero; test: antiviral activity against WNV, CPE read-out – cell-based (AID 2419); type: functional; conditions: Chlorocebus sabaeus
[6] = A Cell Based Assay for the Identification of Probe candidate Compounds with Anti- Venezuelan Equine Encephalitis virus. [Related pubchem assays: 2409, 2419, 1621, 2238, 2405, 2024, 2065, 2402, 2414, 1635, 1650, 2244 ]; type: functional
[7] = tested on: Vero; test: Vero 76 cell viability after compound exposure – Vero 76 cells, synthesized analogs, cytotoxicity control for West Nile virus antiviral project, SAR follow-up (AID 2414); type: functional, Chlorocebus sabaeus
[8] = target: 26S proteasome non-ATPase regulatory subunit 14 (Homo sapiens, UniProt O00487); test: inhibition of proteasome subunit RPN11 – biochemical, fluorescence polarization, uHTS hits, confirmation (AID 602368); type: functional
[9] = target: 72 kDa type IV collagenase (Homo sapiens, UniProt P08253); test: Dose Response validation of uHTS RPN11 inhibitor hits using a MMP-2 Fluorescence assay.; type: functional
[10] = target: Dual specificity protein phosphatase 3 (Homo sapiens, UniProt P51452); test: Dose Response Confirmation of compounds that inhibit VHR1 in Fluorescent Assay. [Related pubchem assays (depositor defined):AID1661, AID1878]; type: functional
[11] = target: T1, Tyrosine-protein phosphatase non-receptor type 7 (Homo sapiens, UniProt P35236); test: Dose Response confirmation of compounds that inhibit HePTP. [Related pubchem assays (depositor defined):AID1059, AID1661, AID2085]; type: functional
T1 sequence (P35236 whole entry): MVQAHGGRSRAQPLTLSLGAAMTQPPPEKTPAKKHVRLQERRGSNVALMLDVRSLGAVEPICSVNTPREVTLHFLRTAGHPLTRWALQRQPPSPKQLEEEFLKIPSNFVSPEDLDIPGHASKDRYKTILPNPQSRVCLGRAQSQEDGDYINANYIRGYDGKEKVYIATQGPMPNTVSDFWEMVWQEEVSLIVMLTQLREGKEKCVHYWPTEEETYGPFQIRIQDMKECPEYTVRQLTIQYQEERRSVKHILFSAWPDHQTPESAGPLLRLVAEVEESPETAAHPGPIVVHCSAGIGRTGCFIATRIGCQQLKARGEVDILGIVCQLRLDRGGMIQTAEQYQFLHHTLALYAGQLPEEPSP

[12] = target: Prothrombin (Bos taurus, UniProt P00735); test: thrombin protease inhibitors – biochemical, fluorescence polarization, uHTS hits, dose response (AID 602369); type: functional
[13] = target: T2, Eukaryotic translation initiation factor 4H (Homo sapiens, UniProt Q15056); test: eIF4H binding inhibition – biochemical, uHTS, fluorescence polarization, translation initiation inhibitor project, primary screen (AID 2012)
[14] = target: T3, Polyadenylate-binding protein 1 (Homo sapiens, UniProt P11940); test: PABP inhibition in translation initiation, SAR follow-up (AID 435018); type: functional
[15] = target: T3, Polyadenylate-binding protein 1; test: blockers of PABP interaction with poly(A) – biochemical, fluorescence polarization, […] (AID 2014)
[16] = target: T2, Eukaryotic translation initiation factor 4H; test: inhibitors of translation initiation factor eIF4H – SAR follow-up (AID 435011); type: functional
[17] = target: T4, E3 ubiquitin-protein ligase XIAP (Homo sapiens, UniProt P98170); test: small molecules displacing peptide from XIAP – biochemical, IAP family, fluorescence polarization (AID 1018); type: functional
[18] = target: T4, E3 ubiquitin-protein ligase XIAP; test: Counter Screen using XIAP-Bir3 for Chemical Antagonists of Bir1/2 domains of IAP-family anti-apoptotic proteins. [Related pubchem assays (depositor defined):AID1018, AID1449, AID1514, AID1638, AID1749, AID1750, AID488957, AID488963]

T3 sequence (P11940 whole entry): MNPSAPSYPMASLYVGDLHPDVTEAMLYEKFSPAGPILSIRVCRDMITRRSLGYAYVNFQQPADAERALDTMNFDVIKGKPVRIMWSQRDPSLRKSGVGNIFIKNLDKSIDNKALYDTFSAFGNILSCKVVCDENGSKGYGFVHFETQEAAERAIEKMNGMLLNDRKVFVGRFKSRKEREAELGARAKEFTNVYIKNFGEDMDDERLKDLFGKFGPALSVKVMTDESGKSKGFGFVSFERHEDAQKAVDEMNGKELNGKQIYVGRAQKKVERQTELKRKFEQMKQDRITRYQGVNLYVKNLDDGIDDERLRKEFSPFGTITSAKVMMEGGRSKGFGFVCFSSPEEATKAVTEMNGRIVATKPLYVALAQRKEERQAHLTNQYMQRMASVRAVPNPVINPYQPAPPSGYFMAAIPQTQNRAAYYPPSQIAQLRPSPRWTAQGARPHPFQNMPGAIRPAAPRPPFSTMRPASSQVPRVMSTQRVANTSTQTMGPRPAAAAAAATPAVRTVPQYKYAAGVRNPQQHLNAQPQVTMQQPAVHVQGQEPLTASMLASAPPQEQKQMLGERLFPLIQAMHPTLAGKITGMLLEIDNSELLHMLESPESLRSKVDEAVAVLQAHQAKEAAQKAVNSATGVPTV
T4 sequence (P98170 whole entry): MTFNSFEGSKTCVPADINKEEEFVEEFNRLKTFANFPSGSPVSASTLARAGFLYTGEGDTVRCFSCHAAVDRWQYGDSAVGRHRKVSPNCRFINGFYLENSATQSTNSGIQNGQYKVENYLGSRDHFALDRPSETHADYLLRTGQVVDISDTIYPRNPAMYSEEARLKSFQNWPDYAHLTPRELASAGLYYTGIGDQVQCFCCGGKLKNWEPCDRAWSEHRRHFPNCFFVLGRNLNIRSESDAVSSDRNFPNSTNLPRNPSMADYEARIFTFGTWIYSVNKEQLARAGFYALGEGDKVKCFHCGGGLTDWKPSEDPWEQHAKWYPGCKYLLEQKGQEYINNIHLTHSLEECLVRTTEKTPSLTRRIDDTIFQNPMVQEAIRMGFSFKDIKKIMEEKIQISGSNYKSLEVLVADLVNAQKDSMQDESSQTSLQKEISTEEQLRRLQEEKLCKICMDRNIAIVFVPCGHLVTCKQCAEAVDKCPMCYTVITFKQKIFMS
Chain of 72 kDa type IV collagenase (P08253 whole entry): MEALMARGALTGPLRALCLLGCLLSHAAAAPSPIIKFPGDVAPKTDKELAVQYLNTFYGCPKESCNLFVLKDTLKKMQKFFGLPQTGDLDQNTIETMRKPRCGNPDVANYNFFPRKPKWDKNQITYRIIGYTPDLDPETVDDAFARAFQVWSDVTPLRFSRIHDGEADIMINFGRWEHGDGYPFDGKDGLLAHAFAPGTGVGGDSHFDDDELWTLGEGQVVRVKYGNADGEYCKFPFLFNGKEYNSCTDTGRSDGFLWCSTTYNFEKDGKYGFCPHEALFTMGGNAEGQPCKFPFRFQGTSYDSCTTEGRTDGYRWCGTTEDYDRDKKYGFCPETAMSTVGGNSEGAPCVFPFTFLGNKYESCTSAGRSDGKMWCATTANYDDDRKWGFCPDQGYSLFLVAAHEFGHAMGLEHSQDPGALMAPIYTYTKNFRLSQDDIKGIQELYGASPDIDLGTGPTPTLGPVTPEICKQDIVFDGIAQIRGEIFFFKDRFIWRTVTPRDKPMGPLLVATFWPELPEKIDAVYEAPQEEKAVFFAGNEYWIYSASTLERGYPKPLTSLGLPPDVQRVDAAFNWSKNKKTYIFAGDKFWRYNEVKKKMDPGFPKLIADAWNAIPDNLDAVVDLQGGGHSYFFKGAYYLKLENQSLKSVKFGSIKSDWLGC
Chain of 26S proteasome non-ATPase regulatory subunit 14 (O00487 whole entry): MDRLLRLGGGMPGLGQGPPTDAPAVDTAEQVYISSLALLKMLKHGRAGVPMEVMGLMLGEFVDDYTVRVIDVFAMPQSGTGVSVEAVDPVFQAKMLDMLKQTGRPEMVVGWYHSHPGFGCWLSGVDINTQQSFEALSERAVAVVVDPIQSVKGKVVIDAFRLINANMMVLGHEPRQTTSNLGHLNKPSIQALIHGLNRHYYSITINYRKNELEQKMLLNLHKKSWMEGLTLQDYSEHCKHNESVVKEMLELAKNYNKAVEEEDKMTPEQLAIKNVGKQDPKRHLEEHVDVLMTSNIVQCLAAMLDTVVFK
Chain of Dual specificity protein phosphatase 3 (P51452 whole entry): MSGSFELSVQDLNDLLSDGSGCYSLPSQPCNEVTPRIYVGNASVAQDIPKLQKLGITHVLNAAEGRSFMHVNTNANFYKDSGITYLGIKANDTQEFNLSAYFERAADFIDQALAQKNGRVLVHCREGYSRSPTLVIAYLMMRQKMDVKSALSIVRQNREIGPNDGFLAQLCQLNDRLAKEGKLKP

**Q.** For `Brc1ccc2c(c1)CN1CCCC1=N2`, which IC50 [1] is on record?
**A.** 38.9 µM (active)

**Q.** And the CC50 [2]?
**A.** > 40 µM (active)

**Q.** What about the IC50 [3] of the same molecule?
**A.** 19.7 µM (active)

**Q.** What about the CC50 [4] of the same molecule?
**A.** 197 µM (active)

**Q.** And the CC50 ([4]; Chlorocebus sabaeus, Vero)?
**A.** > 100 µM (active)

**Q.** What about the IC50 [5] of the same molecule?
**A.** 16.8 µM (active)

**Q.** What about the IC50 [6] of the same molecule?
**A.** > 66.6 µM (active) and 60.3 µM (active)

**Q.** And the CC50 [7]?
**A.** 124 µM (active)

**Q.** And the CC50 ([7]; Chlorocebus sabaeus, Vero)?
**A.** > 66.6 µM (active)

**Q.** With `Cc1ccc(-c2nnn3c2nc(NCCc2ccc(S(N)(=O)=O)cc2)c2ccccc23)cc1` as the molecule, how does the IC50 [8] read?
**A.** 17.7 µM (active)

**Q.** What about the IC50 [9] of the same molecule?
**A.** > 100 µM (inactive)

**Q.** And the IC50 [10]?
**A.** 0.783 µM (active)

**Q.** And the IC50 [11]?
**A.** 0.819 µM (active)

**Q.** And the IC50 [12]?
**A.** 77.4 µM (active)

**Q.** What does the source list for `COc1ccc(OC)c(NC(=O)CSc2ccc(-c3ccco3)nn2)c1`?
**A.** IC50 [13]: 16.1 µM (active); IC50 [14]: > 100 µM (inactive); IC50 [15]: 93.4 µM (active); IC50 [16]: 48.7 µM (active)

**Q.** With `CCOCCCNC(=O)c1cn(CC(C)C)c(=O)c2cc(OC)c(OC)cc12` as the molecule, how does the IC50 [17] read?
**A.** > 100 µM (not active)

**Q.** And the IC50 [18]?
**A.** > 100 µM (inactive)
